Test results taken from US20070059310A1, “Therapeutic combination compositions and methods of using same” (priority 2005, published 2007).

Test: Aggregate number from ratio of molecular weights at pH 7 and pH 13 (GPC fractions)
Assay type: physicochemical
Experimental: The aggregate number of a β-glucan sample under a specified set of conditions can be determined by determining the average molecular weight of the polymer under those conditions. The β-glucan is then denatured, that is, subjected to conditions which separate any aggregates into their component single polymer chains. The average molecular weight of the denatured polymer is then determined. The ratio of the molecular weights of the aggregated and denatured forms of the polymer is the aggregate number. A typical β-glucan composition includes molecules having a range of chain lengths, conformations and molecular weights. Thus, the measured aggregate number of a β-glucan composition is the mass average aggregate number across the entire range of β-glucan molecules within the composition. […] For example, a measured aggregate number of about 6 or more is characteristic of a composition in which the β-glucan is substantially in the triple helix aggregate conformation. […]
The molecular weights of fractions A and C were determined at 25° C. at both pH 7 and pH 13, and at 37° C. at pH 7. […] Thus, at a given temperature the ratio of the molecular weights determined at pH 7 and pH 13 is the aggregate number at pH 7 at that temperature. […]

With scleroglucan the aggregate number (pH 7, 25° C.) was “about 3” and the aggregate number (pH 7, 37° C.) was “about 3”.
